Test results from patent US20240409536A1, “COMPOUNDS AND METHODS FOR MODULATING SPLICING” (REMIX THERAPEUTICS INC., priority 2021, published 2024).

How the values were obtained:
HTT mRNA = test: Splicing RT-qPCR assay, HTT canonical (CJ) and alternative (AJ) junction mRNA; format: cell-based; conditions: Homo sapiens, A673 or K562 cells, 24 hours; for IC50: decrease in canonical junction mRNA; for AC50: increase in alternative junction mRNA
Procedure, shortened: (§1)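 A673 (DMEM/10% FBS, plated 24 h before dosing) or K562 (IMDM/10% FBS) cells treated 24 h at 37 °C with 11-point 3-fold dilutions, top final 10 uM, DMSO ≤0.25%. Lysates analysed by one-step RT-qPCR for CJ and AJ isoforms, normalized to GAPDH/GUSB (K562) or PPIA (A673).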

MYB mRNA = test: Splicing RT-qPCR assay, MYB canonical (CJ) and alternative (AJ) junction mRNA; format: cell-based; conditions: Homo sapiens, A673 or K562 cells, 24 hours; for IC50: decrease in canonical junction mRNA; for AC50: increase in alternative junction mRNA
Procedure, shortened: as §1

Target C = test: HiBiT protein abundance assay, Target C (K562 HiBiT knock-in cells); format: cell-based, human; conditions: 24 hours
Procedure, shortened: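 K562 knock-in cells (10000/well, IMDM+1% FBS) treated 24 h at 37 °C with 10-point 3-fold dilutions, top final 10 μM, DMSO ≤0.25%. HiBiT lytic luminescence read; response normalized to unmodified K562 and DMSO-treated controls. IC50 interpolated at 50% abundance by four-parameter logistic fit.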

Compound | IC50 (HTT mRNA) [nM] | AC50 (HTT mRNA) [nM] | IC50 (MYB mRNA) [nM] | AC50 (MYB mRNA) [nM] | IC50 (Target C) [nM]
COc1cnc2c(N3C[C@@H](C)N[C@@H](C)C3)ccc(C(=O)Nc3cc(F)c4nc(C)cn4c3)c2n1 [Compound 205, 8-[(3R,5S)-3,5-dimethylpiperazin-1-yl]-N-{8-fluoro-2-methylimidazo[1,2-a]pyridin-6-yl}-3-methoxyquinoxaline-5-carboxamide; trifluoroacetic acid] | 100 to 1000 | 100 to 1000 | < 100 | < 100 | 100 to 1000
COc1cnc2c(N3CCC(N(C)C)CC3)ccc(C(=O)Nc3cc(F)c4nc(C)cn4c3)c2n1 [Compound 206, 8-[4-(dimethylamino)piperidin-1-yl]-N-{8-fluoro-2-methylimidazo[1,2-a]pyridin-6-yl}-3-methoxyquinoxaline-5-carboxamide; trifluoroacetic acid] | 100 to 1000 | 100 to 1000 | 100 to 1000 | 100 to 1000 | 100 to 1000
COc1cnc2c(N3CCNCC3)ccc(C(=O)Nc3cc(F)c4nc(C)cn4c3)c2n1 [Compound 207, N-{8-fluoro-2-methylimidazo[1,2-a]pyridin-6-yl}-3-methoxy-8-(piperazin-1-yl)quinoxaline-5-carboxamide; bis(trifluoroacetic acid)] | 100 to 1000 | 1000 to 10000 | < 100 | < 100 | 1000 to 10000
Cc1cnc2c(C(=O)Nc3cc(F)c4nc(C)cn4c3)ccc(N3CCC(N(C)C)CC3)c2n1 [Compound 208, 8-[4-(dimethylamino)piperidin-1-yl]-N-{8-fluoro-2-methylimidazo[1,2-a]pyridin-6-yl}-2-methylquinoxaline-5-carboxamide; bis(trifluoroacetic acid)] | 1000 to 10000 | 1000 to 10000 | < 100 | < 100 | 1000 to 10000
Cc1ccc2c(N3C[C@@H](C)N[C@@H](C)C3)ccc(C(=O)Nc3cc(F)c4nc(C)cn4c3)c2n1 [Compound 214, 5-[(3R,5S)-3,5-dimethylpiperazin-1-yl]-N-{8-fluoro-2-methylimidazo[1,2-a]pyridin-6-yl}-2-methylquinoline-8-carboxamide] | 100 to 1000 | 1000 to 10000 | < 100 | 100 to 1000 | 1000 to 10000
Cc1ccc2c(N3CCC(N(C)C)CC3)ccc(C(=O)Nc3cc(F)c4nc(C)cn4c3)c2n1 [Compound 215, 5-[4-(dimethylamino)piperidin-1-yl]-N-{8-fluoro-2-methylimidazo[1,2-a]pyridin-6-yl}-2-methylquinoline-8-carboxamide] | 100 to 1000 | 1000 to 10000 | 100 to 1000 | 100 to 1000 | 1000 to 10000
Cc1cnc2c(N3C[C@@H](C)N[C@@H](C)C3)ccc(C(=O)Nc3cc(F)c4nc(C)cn4c3)c2n1 [Compound 216, 8-((3R,5S)-3,5-dimethylpiperazin-1-yl)-N-{8-fluoro-2-methylimidazo[1,2-a]pyridin-6-yl}-3-methylquinoxaline-5-carboxamide] | 1000 to 10000 | > 10000 | 100 to 1000 | < 100 | 1000 to 10000
Cc1cn2cc(NC(=O)c3ccc(N4CCNC5(CC5)C4)c4nccnc34)cc(F)c2n1 [Compound 218, 8-{4,7-diazaspiro[2.5]octan-7-yl}-N-{8-fluoro-2-methylimidazo[1,2-a]pyridin-6-yl}quinoxaline-5-carboxamide] | > 10000 | 1000 to 10000 | < 100 | < 100 | 1000 to 10000
Cc1cn2cc(NC(=O)c3ccc(N4CC(C)(C)NC(C)(C)C4)c4nccnc34)cc(F)c2n1 [Compound 219, N-{8-fluoro-2-methylimidazo[1,2-a]pyridin-6-yl}-8-(3,3,5,5-tetramethylpiperazin-1-yl)quinoxaline-5-carboxamide] | 1000 to 10000 | 1000 to 10000 | < 100 | < 100 | 1000 to 10000
Cc1cn2cc(NC(=O)c3ccc(N4CCNC(C)(C)C4)c4nccnc34)cc(F)c2n1 [Compound 220, 8-(3,3-dimethylpiperazin-1-yl)-N-{8-fluoro-2-methylimidazo[1,2-a]pyridin-6-yl}quinoxaline-5-carboxamide] | 1000 to 10000 | 1000 to 10000 | < 100 | < 100 | 1000 to 10000
CCNC1CCN(c2ccc(C(=O)Nc3cc(F)c4nc(C)sc4c3)c3nnccc23)CC1 [Compound 221, 5-[4-(ethylamino)piperidin-1-yl]-N-(4-fluoro-2-methyl-1,3-benzothiazol-6-yl)cinnoline-8-carboxamide] | 1000 to 10000 | 1000 to 10000 | 1000 to 10000 | 1000 to 10000 | 1000 to 10000
COc1cnc2c(C(=O)Nc3cc(F)c4nc(C)cn4c3)ccc(N3C[C@@H](C)N[C@@H](C)C3)c2n1 [Compound 223] | 100 to 1000 | 100 to 1000 | < 100 | < 100 | 100 to 1000
COc1cnc2c(C(=O)Nc3cc(F)c4nc(C)cn4c3)ccc(N3CCNCC3)c2n1 [Compound 225, N-{8-fluoro-2-methylimidazo[1,2-a]pyridin-6-yl}-2-methoxy-8-(piperazin-1-yl)quinoxaline-5-carboxamide] | > 10000 | > 10000 | < 100 | 100 to 1000 | > 10000
Cc1cn2cc(NC(=O)c3ccc(N4CCN(CCF)C5(CC5)C4)c4nccnc34)cc(F)c2n1 [Compound 370] | > 10000 | > 10000 | 1000 to 10000 | > 10000 | > 10000
Cc1cn2cc(NC(=O)c3ccc(C4CCNCC4)c4nccnc34)cc(F)c2n1 [Compound 371] | 100 to 1000 | 100 to 1000 | 100 to 1000 | < 100 | 100 to 1000
Cc1cn2cc(NC(=O)c3ccc(N4CCNC5(COC5)C4)c4nccnc34)cc(F)c2n1 [Compound 372] | > 10000 | > 10000 | 1000 to 10000 | 1000 to 10000 | > 10000
Cc1cn2cc(NC(=O)c3ccc(N4CCNC5(CCOC5)C4)c4nccnc34)cc(F)c2n1 (centres unmarked) [Compound 373] | > 10000 | > 10000 | 100 to 1000 | 1000 to 10000 | 1000 to 10000
Cc1cn2cc(NC(=O)c3ccc(N4CCNC5(CCOCC5)C4)c4nccnc34)cc(F)c2n1 [Compound 374] | 1000 to 10000 | 1000 to 10000 | 100 to 1000 | 100 to 1000 | 1000 to 10000
Cc1cn2cc(NC(=O)c3ccc(C4CCNC5(CC5)C4)c4nccnc34)cc(F)c2n1 (centres unmarked) [Compound 375] | 1000 to 10000 | 1000 to 10000 | 100 to 1000 | 100 to 1000 | 1000 to 10000
Cc1cn2cc(NC(=O)c3ccc(N4C[C@@H](C)NC5(CC5)C4)c4nccnc34)cc(F)c2n1 [Compound 376] | > 10000 | > 10000 | 100 to 1000 | 100 to 1000 | > 10000
Cc1cn2cc(NC(=O)c3ccc(N4C[C@H](C)NC5(CC5)C4)c4nccnc34)cc(F)c2n1 [Compound 377] | 1000 to 10000 | 1000 to 10000 | < 100 | < 100 | 1000 to 10000
COc1ncc2c(N3C[C@@H](C)N[C@@H](C)C3)ccc(C(=O)Nc3cn4cc(C)nc4c(OC)n3)c2n1 [Compound 378] | 100 to 1000 | 100 to 1000 | < 100 | < 100 | 100 to 1000
